Assay results published in PubChem BioAssay (NCI).
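Exposure lasted 48 hours, with cells grown in 96-well plates and compounds tested at five concentrations. The concentration for full growth arrest is given as TGI.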

Experiments:
Test in all cases: NCI tumour cell line growth inhibition, 48 h
U251 CNS = test system: U251 CNS
HL-60(TB) leukemia = test system: HL-60(TB) leukemia
UACC-257 melanoma = test system: UACC-257 melanoma
OVCAR-5 ovarian = test system: OVCAR-5 ovarian
DMS 114 small cell lung = test system: DMS 114 small cell lung
SK-OV-3 ovarian = test system: SK-OV-3 ovarian
MDA-MB-231 breast = test system: MDA-MB-231 breast
SNB-75 CNS = test system: SNB-75 CNS
SR leukemia = test system: SR leukemia
SN12C renal = test system: SN12C renal
A498 renal = test system: A498 renal
OVCAR-8 ovarian = test system: OVCAR-8 ovarian
HCT-116 colon = test system: HCT-116 colon
MDA-N = test system: MDA-N
COLO 205 colon = test system: COLO 205 colon
HOP-18 NSCLC = test system: HOP-18 NSCLC
DLD-1 colon = test system: DLD-1 colon
HCT-15 colon = test system: HCT-15 colon
SK-MEL-28 melanoma = test system: SK-MEL-28 melanoma
DU-145 prostate = test system: DU-145 prostate
CAKI-1 renal = test system: CAKI-1 renal
K-562 leukemia = test system: K-562 leukemia
KM20L2 colon = test system: KM20L2 colon
NCI/ADR-RES ovarian = test system: NCI/ADR-RES ovarian
RXF 393 renal = test system: RXF 393 renal
IGROV1 ovarian = test system: IGROV1 ovarian
SW-620 colon = test system: SW-620 colon
RXF-631 renal = test system: RXF-631 renal
DMS 273 small cell lung = test system: DMS 273 small cell lung
UACC-62 melanoma = test system: UACC-62 melanoma
NCI-H460 lung = test system: NCI-H460 lung
NCI-H226 lung = test system: NCI-H226 lung
T-47D breast = test system: T-47D breast
RPMI-8226 leukemia = test system: RPMI-8226 leukemia
NCI-H522 lung = test system: NCI-H522 lung
HCC-2998 colon = test system: HCC-2998 colon
LOX IMVI melanoma = test system: LOX IMVI melanoma
SNB-19 CNS = test system: SNB-19 CNS
SF-539 CNS = test system: SF-539 CNS
ACHN renal = test system: ACHN renal
SK-MEL-5 melanoma = test system: SK-MEL-5 melanoma
786-0 renal = test system: 786-0 renal
SNB-78 CNS = test system: SNB-78 CNS
UO-31 renal = test system: UO-31 renal
MCF7 breast = test system: MCF7 breast
A549 NSCLC = test system: A549 NSCLC
TK-10 renal = test system: TK-10 renal
HT29 colon = test system: HT29 colon
EKVX NSCLC = test system: EKVX NSCLC
HOP-62 NSCLC = test system: HOP-62 NSCLC
MDA-MB-435 = test system: MDA-MB-435
OVCAR-4 ovarian = test system: OVCAR-4 ovarian
HOP-92 NSCLC = test system: HOP-92 NSCLC
MALME-3M melanoma = test system: MALME-3M melanoma
OVCAR-3 ovarian = test system: OVCAR-3 ovarian
LXFL 529 NSCLC = test system: LXFL 529 NSCLC
M19-MEL melanoma = test system: M19-MEL melanoma
KM12 colon = test system: KM12 colon
MOLT-4 leukemia = test system: MOLT-4 leukemia
HS 578T breast = test system: HS 578T breast
NCI-H23 lung = test system: NCI-H23 lung
CCRF-CEM leukemia = test system: CCRF-CEM leukemia
SK-MEL-2 melanoma = test system: SK-MEL-2 melanoma
M14 melanoma = test system: M14 melanoma
SF-295 CNS = test system: SF-295 CNS
BT-549 breast = test system: BT-549 breast
PC-3 prostate = test system: PC-3 prostate
SF-268 CNS = test system: SF-268 CNS

SMILES: O=[N+]([O-])C1(CO)COC2(OC1)c1ccccc1-c1ccccc12
- TGI (U251 CNS): > 100 µM
- TGI (HL-60(TB) leukemia): 58.5 µM
- TGI (UACC-257 melanoma): > 100 µM
- TGI (OVCAR-5 ovarian): > 100 µM
- TGI (DMS 114 small cell lung): > 100 µM
- TGI (SK-OV-3 ovarian): > 100 µM
- TGI (MDA-MB-231 breast): > 100 µM
- TGI (SNB-75 CNS): > 100 µM
- TGI (SR leukemia): 82.1 µM
- TGI (SN12C renal): > 100 µM
- TGI (A498 renal): > 100 µM
- TGI (OVCAR-8 ovarian): > 100 µM
- TGI (HCT-116 colon): 88.7 µM
- TGI (MDA-N): > 100 µM
- TGI (COLO 205 colon): > 82.4 µM
- TGI (HOP-18 NSCLC): > 100 µM
- TGI (DLD-1 colon): > 89.1 µM
- TGI (HCT-15 colon): > 100 µM
- TGI (SK-MEL-28 melanoma): > 100 µM
- TGI (DU-145 prostate): > 100 µM
- TGI (CAKI-1 renal): > 100 µM
- TGI (K-562 leukemia): > 87 µM
- TGI (KM20L2 colon): > 100 µM
- TGI (NCI/ADR-RES ovarian): > 72.9 µM
- TGI (RXF 393 renal): > 69.1 µM
- TGI (IGROV1 ovarian): > 100 µM
- TGI (SW-620 colon): 44.5 µM
- TGI (RXF-631 renal): > 100 µM
- TGI (DMS 273 small cell lung): > 100 µM
- TGI (UACC-62 melanoma): > 100 µM
- TGI (NCI-H460 lung): > 100 µM
- TGI (NCI-H226 lung): > 100 µM
- TGI (T-47D breast): 77.2 µM
- TGI (RPMI-8226 leukemia): 70.1 µM
- TGI (NCI-H522 lung): 41 µM
- TGI (HCC-2998 colon): > 100 µM
- TGI (LOX IMVI melanoma): 67.7 µM
- TGI (SNB-19 CNS): > 100 µM
- TGI (SF-539 CNS): > 85.6 µM
- TGI (ACHN renal): > 100 µM
- TGI (SK-MEL-5 melanoma): > 100 µM
- TGI (786-0 renal): > 74.8 µM
- TGI (SNB-78 CNS): > 100 µM
- TGI (UO-31 renal): > 100 µM
- TGI (MCF7 breast): > 95.3 µM
- TGI (A549 NSCLC): > 100 µM
- TGI (TK-10 renal): > 100 µM
- TGI (HT29 colon): > 100 µM
- TGI (EKVX NSCLC): > 100 µM
- TGI (HOP-62 NSCLC): > 100 µM
- TGI (MDA-MB-435): > 100 µM
- TGI (OVCAR-4 ovarian): > 100 µM
- TGI (HOP-92 NSCLC): > 95.7 µM
- TGI (MALME-3M melanoma): 73.9 µM
- TGI (OVCAR-3 ovarian): > 100 µM
- TGI (LXFL 529 NSCLC): > 100 µM
- TGI (M19-MEL melanoma): > 100 µM
- TGI (KM12 colon): > 100 µM
- TGI (MOLT-4 leukemia): > 85.2 µM
- TGI (HS 578T breast): > 100 µM
- TGI (NCI-H23 lung): > 100 µM
- TGI (CCRF-CEM leukemia): 71 µM
- TGI (SK-MEL-2 melanoma): > 100 µM
- TGI (M14 melanoma): > 88.4 µM
- TGI (SF-295 CNS): > 100 µM
- TGI (BT-549 breast): > 88.2 µM
- TGI (PC-3 prostate): > 100 µM
- TGI (SF-268 CNS): > 93.2 µM

SMILES: CC(=O)OC1CC2C(C)(C)C(=O)C=C[C@]2(C)C2CCC3(C)C(=CCC3[C@H](CO)C[C@H](O)C(=O)C(C)(C)O)[C@]12C (stereo partly drawn)
- TGI (U251 CNS): 31.5 µM
- TGI (HL-60(TB) leukemia): 43.8 µM
- TGI (UACC-257 melanoma): 30.8 µM
- TGI (OVCAR-5 ovarian): 83.3 µM
- TGI (DMS 114 small cell lung): > 100 µM
- TGI (SK-OV-3 ovarian): 48.2 µM
- TGI (SNB-75 CNS): 91.6 µM
- TGI (SR leukemia): 86.2 µM
- TGI (SN12C renal): 75.9 µM
- TGI (A498 renal): 30.7 µM
- TGI (OVCAR-8 ovarian): 33.1 µM
- TGI (HCT-116 colon): > 100 µM
- TGI (COLO 205 colon): > 100 µM
- TGI (HOP-18 NSCLC): > 100 µM
- TGI (DLD-1 colon): 30.3 µM
- TGI (HCT-15 colon): 40.4 µM
- TGI (SK-MEL-28 melanoma): 36.5 µM
- TGI (CAKI-1 renal): 55.3 µM
- TGI (K-562 leukemia): > 100 µM
- TGI (KM20L2 colon): 28 µM
- TGI (RXF 393 renal): 31.3 µM
- TGI (IGROV1 ovarian): 49.1 µM
- TGI (SW-620 colon): 41 µM
- TGI (RXF-631 renal): > 100 µM
- TGI (DMS 273 small cell lung): > 100 µM
- TGI (UACC-62 melanoma): 31.6 µM
- TGI (NCI-H460 lung): 40.1 µM
- TGI (NCI-H226 lung): 42.2 µM
- TGI (RPMI-8226 leukemia): 64.2 µM
- TGI (NCI-H522 lung): 52.3 µM
- TGI (HCC-2998 colon): 34.1 µM
- TGI (LOX IMVI melanoma): 33.6 µM
- TGI (SNB-19 CNS): > 100 µM
- TGI (SF-539 CNS): 35.1 µM
- TGI (ACHN renal): 50 µM
- TGI (SK-MEL-5 melanoma): 42 µM
- TGI (786-0 renal): 34.1 µM
- TGI (SNB-78 CNS): > 100 µM
- TGI (UO-31 renal): 39.3 µM
- TGI (A549 NSCLC): 79.3 µM
- TGI (TK-10 renal): 65.9 µM
- TGI (HT29 colon): 28.1 µM
- TGI (EKVX NSCLC): 38.5 µM
- TGI (OVCAR-4 ovarian): > 100 µM
- TGI (MALME-3M melanoma): 33.3 µM
- TGI (OVCAR-3 ovarian): 35.4 µM
- TGI (LXFL 529 NSCLC): > 100 µM
- TGI (M19-MEL melanoma): 97.3 µM
- TGI (KM12 colon): 39 µM
- TGI (MOLT-4 leukemia): 89.5 µM
- TGI (CCRF-CEM leukemia): 66.3 µM
- TGI (SK-MEL-2 melanoma): 51.3 µM
- TGI (M14 melanoma): 45.6 µM
- TGI (SF-295 CNS): 27.7 µM
- TGI (SF-268 CNS): 82.2 µM
